Reference: paper PMC10224444, “Novel Perspectives on the Design and Development of a Long-Acting Subcutaneous Raltegravir Injection for Treatment of HIV—In Vitro and In Vivo Evaluation” (Pharmaceutics, 2023)
Values joined by “and” are separate entries in the source; they are usually repeats but may differ in a detail not shown here. Equal entries are not always repeated.

Columns and labels:
[1] = parameters: method as in PMID 33979164; conditions: cited from earlier work
[2] = parameters: method as in PMID 33979164; conditions: pH 7.0, over 5 h; cited from earlier work
[3] = parameters: method as in PMID 33979164; conditions: cited from earlier work; remark: listed apart in the source
[4] = In vitro release test in 50% PBS (pH 7.4, 34 °C), HPLC; assay type: physicochemical; conditions: for half-life: 50% PBS pH 7.4, 25 µM CTG probes, 100 µM prodrug 25, calculated as 0.69/kobs, read-out: t½ (half-life of payload release) (converted)
Description: (§1) Probes 14–15 and 20–21 stock solutions were prepared at 1000 µM (1 mM) in a 1:1 mixture of MeCN/water, followed by serial dilution with deionised water to give a 50 µM working concentration. Each experiment was run in triplicate after dilution of 0.5 mL of the stock solution with 0.5 mL of PBS (pH 7.4) or Tris buffer (pH 7.4), giving a final assay concentration of 25 µM for the probes. The samples were incubated at 34 °C to mimic the conditions found in SC tissue. Every day, a 2 µL aliquot of each sample was subjected to HPLC analysis using an Agilent 1260 Infinity instrument, with conditions as follows. Column: Agilent ZORBAX Eclipse Plus C18 Rapid Resolution, 3.5 μm (4.6 × 100 mm), pore size (95 Å); column temperature (35 °C). The mobile phases were solvent A: 0.1% TFA in ultrapure H2O and solvent B: 0.1% TFA in MeCN. The injection volume was 2 μL and the flow rate was kept at 1.0 mL/min. The analysis was performed using a gradient elution of 5–100% of solvent B in solvent A over 9 min, then maintained for a further 1 min at two wavelengths: 254 nm and 214 nm. The retention times of CTG and probes 14–15 and 20–21 were 4.13, 4.27, 4.93, 5.55, and 5.71 min, respectively. A calibration curve for the free CTG fluorophore was constructed over the concentration range of 10–100 µM at pH 7.4. The data were fit by linear regression to the equation y = 14.615x − 0.067, where y is the peak area of the analyte and x is the analyte concentration (µM). The correlation coefficient (R2) was computed as 0.999, confirming the linearity of used method under the specified measured concentrations.
Likewise, a test solution of prodrug 25 was incubated in 50% PBS at 100 µM final concentration, and analysed using the same HPLC method but with detection at 254 nm only. A higher concentration of 25 was used due to its relatively weaker absorption at 254 nm, compared with CTG. The retention times of RAL and prodrug 25 were 4.47 and 5.55 min, respectively. A calibration curve of RAL was constructed over the range 50–1000 µM. The data were fit by linear regression as before to give the equation y = 5.1961x − 20.064, with a similar goodness of fit (R^2 ≥ 0.999).
(§2) In vitro Release assays for probes 14–15 and 20–21 were conducted using pH and temperature conditions similar to those of SC tissue (pH 7.4 and 34 °C). Test compounds were dissolved in either MeCN/PBS (1:1, pH 7.4) or MeCN/Tris buffer (1:1, pH 7.4) at 25 µM, then incubated at 34 °C. Aliquots were taken daily and analysed by HPLC and LC-MS until complete fluorophore release was achieved. HPLC was preferred over fluorometric-based assay to study the stability of the synthesised probes because of the bleaching effect that may occur to the fluorophore over the long analysing periods. Photobleaching is the inability of the fluorophore to fluoresce due to the fluorophore instability upon repeated exposure to light over long periods. It can be a particular problem for fluorescence-based assays, thereby rationalising the choice of HPLC in the current work.
Similarly to the assays above, prodrug 25 (100 µM) was incubated in 50% PBS at 34 °C, and aliquots analysed daily by HPLC and LC-MS until full RAL release was achieved.

[5] = In vitro release test in 50% Tris buffer (pH 7.4, 34 °C), HPLC; assay type: physicochemical; conditions: 25 µM probe
Description: as §1, §2

[6] = Pharmacokinetic study after single SC injection in BALB/c mice; assay type: in vivo; conditions: mouse, plasma level of the dosed compound, single SC 30 mg/kg, male BALB/c mice, n = 3
Description: The pharmacokinetic profile of prodrug 25 was evaluated in mice, in a study undertaken at WuXi AppTec. Prodrug 25 was dissolved in a sterile vehicle of DMSO/Solutol HS15/water (10:10:80) to give a clear solution with a final concentration of 6 mg/mL. The same procedure was used to prepare a 6 mg/mL solution of RAL as a control. Six male BALB/c mice were used, each weighing 18–25 g and aged between 7–9 weeks (three per group). A single 30 mg/kg dose of prodrug 25 was administered to each animal in the treatment group (subcutaneously, in the thoracic region). Similarly, RAL (30 mg/kg) was administered to each animal in the control group. Blood samples were taken at the time points indicated below, up to the experiment endpoint (96 h).
For each animal, blood samples (30 μL each) were collected from the submandibular or saphenous vein over a period of 96 h, at the following time points: zero/pre-dose; then 0.25, 0.5, 1, 2, 3, 4, 5, 6, 24, 48, and 96 h. All samples were transferred into pre-chilled commercial K2EDTA tubes and placed on wet ice until processing for plasma, which was obtained by centrifugation at 4 °C and 3200× g for 10 min, within 30 min of sampling. The plasma samples were transferred to polypropylene tubes, snap-frozen on dry ice, and kept at −70 ± 10 °C until LC-MS/MS analysis.
An LC-MS/MS method was developed to measure the concentrations of prodrug 25 and RAL in the biological matrix. Two mobile phases were used: mobile phase A (0.025% NH4OH and 2 mM NH4OAc in 95:5 v/v water/MeCN) and mobile phase B (0.025% NH4OH and 2 mM NH4OAc in 5:95 v/v water/MeCN). A UPLC method was performed using an LC-MS/MS-BM Triple Quad 6500 plus system with an ACQUITY UPLC BEH C18 1.7 μm column (2.1 × 50 mm) at a flow rate of 0.65 mL/min. The assay time was 2.5 min, and the solvent B composition was as follows: 10–100% (0.2–1.4 min), 30% (1.41–1.7 min), 95% (2.0–2.4 min), and 10% (2.41–2.5 min). The retention times for the prodrug, RAL and the internal standards (tolbutamide and verapamil) were 0.76, 1.04, 0.66, and 0.97 min, respectively. Quantification was performed by monitoring the transition of m/z 835.3 [M+H]^+ to 457.2 for prodrug 25, representing the cyclisation of the linker with the amidic RAL such as in side-product 22; whereas for RAL, the transition m/z 445.2 [M+H]^+ to 361.2 was followed, representing the loss of the 2-methyl-1,3,4-oxadiazole moiety as the main fragmentation pathway. For the internal standards, the m/z transition from 455.2 [M+H]^+ to 164.9 was used for verapamil (corresponding to formation of the verapamil fragment [CH2CH2-(3,4-dimethoxy phenyl)]^+), and for tolbutamide, the transition of m/z of 271.1 [M+H]^+ to 155.1 was used, representing formation of the [CH3-Ph-SO2]^+ fragment. […] The method was linear over the measured standard concentrations for 25 and RAL. The mean plasma concentration was determined for 25 and RAL (as metabolite or control) at each sampling time point. Pharmacokinetic parameters were then calculated by non-compartmental analysis of plasma concentration/time profiles using the Phoenix WinNonlin 6.3 software. The computed parameters were as follows: peak plasma concentration (Cmax); the time over which the initial concentration is reduced to half (t½); area under the plasma concentration versus time curve from time zero to 96 h (AUC 0–96 h); and mean residence time from time zero to 96 h (MRT 0–96 h).
Since in vitro models are not fully predictive of in vivo pharmacokinetics, especially for prodrugs, assessment of these characteristics still relies on in vivo studies. Therefore, the pharmacokinetic profile of prodrug 25 was evaluated in mice. Compound 25 and the control (RAL) were dissolved in DMSO/Solutol HS15/water (10:10:80). For a single SC injection of 25 (30 mg/kg) in BALB/c mice (n = 3), the plasma concentrations of prodrug and released RAL were measured at the following time points: zero/pre-dose; then 0.25, 0.5, 1, 2, 3, 4, 5, 6, 24, 48, and 96 h. […]

[7] = 50% PBS, pH 7.4, 34 °C, 25 µM probe, 1 d
[8] = 50% PBS, pH 7.4, 34 °C, 25 µM probe

| Compound | half-life [4] [h] | time to maximal release of payload ([4]; 50% PBS, pH 7.4, 34 °C) [days] | CTG fluorophore released after 1 d [4, 7] [%] | CTG fluorophore released after 2 d [4, 8] [%] | CTG release after 1 d in 50% Tris buffer [5] [%] | half-life ([4]; 50% PBS buffer) [h] | also measured |
| --- | --- | --- | --- | --- | --- | --- | --- |
| CNCCCOC(=O)OCOc1c(-c2ccc(Oc3ccc(OC(F)(F)F)cc3)cc2F)c(C)nc2cc(OC)c(Cl)cc12 [Compound 2] |  |  |  |  |  |  | aqueous solubility compared with the parent compound [1]: enhanced; payload released over 5 h [2]: > 55%; oral bioavailability compared with the parent compound [3]: enhanced |
| Cc1cc(C(=O)OC(C)(C)C)ccc1-c1c2ccc(=O)cc-2oc2cc(OCOC(=O)OCCCCCCNCCCc3cn(CCP(=O)(O)O)nn3)ccc12.Cl [Compound 21, 6-(((((9-(4-(Tert-Butoxycarbonyl)-2-Methylphenyl)-3-Oxo-3H-Xanthen-6-yl)Oxy)Methoxy)Carbonyl)Oxy)-N-(3-(1-(2-Phosphonoethyl)-1H-1,2,3-Triazol-4-yl)Propyl)Hexan-1-Aminium Chloride] | 75.6 | 15 | 20 | 33 | 80.9 |  | CTG fluorophore released after 15 d ([4]; 50% PBS, pH 7.4, 34 °C, 25 µM probe, 15 d): 98% |
| Cc1nnc(C(=O)NC(C)(C)c2nc(C(=O)NCc3ccc(F)cc3)c(OCOC(=O)OCCCCCCNCCCc3cn(CCP(=O)(O)O)nn3)c(=O)n2C)o1 [Compound 25, 6-(((((4-((4-Fluorobenzyl)Carbamoyl)-1-Methyl-2-(2-(5-Methyl-1,3,4-Oxadiazole-2-Carboxa-Mido)Propan-2-Yl)-6-Oxo-1,6-Dihydropyrimidin-5yl)Oxy)Methoxy)Carbonyl)Oxy)-N-(3-(1-(2-Phosphonoethyl)-1H-1,2,3-Triazol-4-Yl)Propyl)Hexan-1-Aminium Chloride] |  | 45 |  |  |  | 463 | release kinetics (order) ([4]; 50% PBS, pH 7.4): first-order kinetics; RAL released after 1 d ([4]; 50% PBS, pH 7.4, 34 °C, 100 µM prodrug, 1 d): 8.4%; RAL released after 10 d ([4]; 50% PBS, pH 7.4, 34 °C, 100 µM prodrug, 10 d): 31.5%; RAL released after 45 d (plateau) ([4]; 50% PBS, pH 7.4, 34 °C, 100 µM prodrug, 45 d): 82% and 82.1%; degree of side-product (27) formation ([4]; 50% PBS, pH 7.4, 34 °C, hydrolysis of RAL oxadiazole, accounts for unreleased RAL): 15.2%; Cmax [6]: 4550 ng/mL; Tmax [6]: 0.25 h; AUC(0-t) ([6]; read-out: AUC 0–96 h): 3270 ng·h/mL; half-life ([6]; read-out: t½ (converted)): 0.85 h |
| Cc1cc(C(=O)O)ccc1-c1c2ccc(=O)cc-2oc2cc(OCOC(=O)OCCCCCNCCCc3cn(CCP(=O)(O)O)nn3)ccc12.Cl [Compound 20, 5-(((((9-(4-Carboxy-2-Methylphenyl)-3-Oxo-3H-Xanthen-6-yl)Oxy)Methoxy)Carbonyl)Oxy)-N-(3-(1-(2-Phosphonoethyl)-1H-1,2,3-triazol-4-yl)Propyl)Pentan-1-Aminium Chloride] | 69.1 |  | 25 | 41 | 82.5 |  | CTG fluorophore released after 13 d ([4]; 50% PBS, pH 7.4, 34 °C, 25 µM probe, 13 d): 98% |
| C#CCCCNCCCCCCOC(=O)OCOc1ccc2c(-c3ccc(C(=O)O)cc3C)c3ccc(=O)cc-3oc2c1.Cl [Compound 15, 6-(((((9-(4-Carboxy-2-methylphenyl)-3-oxo-3H-xanthen-6-yl)oxy)methoxy)carbonyl)oxy)-N-(pent-4-yn-1-yl)hexan-1-aminium chloride] | 47.5 |  | 29 | 50 | 86.2 |  | CTG fluorophore released after 10 d ([4]; 50% PBS, pH 7.4, 34 °C, 25 µM probe, 10 d): 98% |
| C#CCCCNCCCCCOC(=O)OCOc1ccc2c(-c3ccc(C(=O)O)cc3C)c3ccc(=O)cc-3oc2c1.Cl [Compound 14, N-(5-(((((9-(4-Carboxy-2-methylphenyl)-3-oxo-3H-xanthen-6-yl)oxy)methoxy)carbonyl)oxy)pentyl)pent-4-yn-1-aminium chloride] |  |  | 36 | 58 | 89.2 | 40.6 | CTG fluorophore released after 9 d ([4]; 50% PBS, pH 7.4, 34 °C, 25 µM probe, 9 d): 98% |
